Test results taken from publication PMC2621304 (Analytical biochemistry, 2008).

Legend:
Rat AhR [1] = molecular target: T1, Rat AhR (Rattus norvegicus, UniProt P41738); assay: Competitive binding assay against [3H]-TCDD, recombinant rat AhR
T1 sequence (P41738 10-853): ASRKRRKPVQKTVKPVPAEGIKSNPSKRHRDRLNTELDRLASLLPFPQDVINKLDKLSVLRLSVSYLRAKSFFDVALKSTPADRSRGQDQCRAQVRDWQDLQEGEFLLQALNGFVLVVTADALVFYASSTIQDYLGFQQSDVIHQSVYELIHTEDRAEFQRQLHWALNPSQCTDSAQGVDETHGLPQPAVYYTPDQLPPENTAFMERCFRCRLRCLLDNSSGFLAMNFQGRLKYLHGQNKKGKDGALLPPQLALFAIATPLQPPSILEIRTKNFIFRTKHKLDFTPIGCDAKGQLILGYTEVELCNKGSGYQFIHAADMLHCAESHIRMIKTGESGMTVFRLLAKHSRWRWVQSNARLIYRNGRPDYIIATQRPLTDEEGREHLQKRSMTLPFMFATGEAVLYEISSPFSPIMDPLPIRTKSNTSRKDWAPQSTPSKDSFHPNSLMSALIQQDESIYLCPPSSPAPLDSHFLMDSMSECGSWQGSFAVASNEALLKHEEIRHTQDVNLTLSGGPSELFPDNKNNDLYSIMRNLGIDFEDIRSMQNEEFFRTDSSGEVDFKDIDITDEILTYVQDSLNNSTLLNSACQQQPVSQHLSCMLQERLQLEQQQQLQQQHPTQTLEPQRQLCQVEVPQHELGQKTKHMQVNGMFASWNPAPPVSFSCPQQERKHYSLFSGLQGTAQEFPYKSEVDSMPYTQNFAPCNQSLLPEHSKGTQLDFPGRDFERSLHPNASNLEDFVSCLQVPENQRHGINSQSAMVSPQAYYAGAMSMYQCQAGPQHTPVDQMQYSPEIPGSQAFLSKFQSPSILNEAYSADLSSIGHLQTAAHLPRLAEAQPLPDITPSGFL

Human AhR [2] = molecular target: T2, Human AhR (Homo sapiens, UniProt P35869); assay: Competitive binding assay against [3H]-TCDD, recombinant human AhR
T2 sequence (P35869 11-848): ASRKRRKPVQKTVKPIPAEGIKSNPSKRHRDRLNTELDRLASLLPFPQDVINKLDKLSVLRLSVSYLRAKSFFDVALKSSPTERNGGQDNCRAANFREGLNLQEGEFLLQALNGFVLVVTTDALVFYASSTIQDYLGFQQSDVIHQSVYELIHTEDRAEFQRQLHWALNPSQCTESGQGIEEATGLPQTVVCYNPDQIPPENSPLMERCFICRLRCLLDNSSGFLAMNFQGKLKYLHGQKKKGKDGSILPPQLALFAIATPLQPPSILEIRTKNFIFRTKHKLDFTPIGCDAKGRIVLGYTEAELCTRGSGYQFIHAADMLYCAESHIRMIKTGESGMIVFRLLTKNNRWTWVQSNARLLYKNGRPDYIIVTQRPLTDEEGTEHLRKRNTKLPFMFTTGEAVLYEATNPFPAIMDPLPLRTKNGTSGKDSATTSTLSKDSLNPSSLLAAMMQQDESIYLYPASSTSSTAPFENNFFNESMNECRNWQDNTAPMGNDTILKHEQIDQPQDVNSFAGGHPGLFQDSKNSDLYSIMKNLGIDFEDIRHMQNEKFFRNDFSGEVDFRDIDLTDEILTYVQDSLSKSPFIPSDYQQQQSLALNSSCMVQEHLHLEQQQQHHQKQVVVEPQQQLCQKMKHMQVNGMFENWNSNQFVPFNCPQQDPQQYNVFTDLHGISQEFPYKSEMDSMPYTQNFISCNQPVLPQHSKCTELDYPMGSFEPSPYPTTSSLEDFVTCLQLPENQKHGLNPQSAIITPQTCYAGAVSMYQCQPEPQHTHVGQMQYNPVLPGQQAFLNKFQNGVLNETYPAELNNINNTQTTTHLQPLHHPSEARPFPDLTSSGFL

AhR in rat liver cytosol = molecular target: T3, AhR in rat liver cytosol (Rattus norvegicus, UniProt P41738); assay: [3H]-TCDD saturation binding, rat liver cytosol
T3 sequence (P41738 10-853): T1 sequence (P41738 10-853)

[3] = Solubility of TCDD in protein solution; assay type: physicochemical; details: unpublished data
Rat AhR [4] = molecular target: T1, Rat AhR; assay: [3H]-TCDD saturation binding, recombinant rat AhR in Sf9 cytosol
Human AhR [5] = molecular target: T2, Human AhR; assay: [3H]-TCDD saturation binding, recombinant human AhR in Sf9 cytosol; details: optimised conditions

| SMILES | Ki (Rat AhR [1]) | Ki (Human AhR [2]) | potency relative to TCDF and PCDD, human AhR (Human AhR [2]) | also measured |
| --- | --- | --- | --- | --- |
| Clc1cc2c(cc1Cl)Oc1c(cc(Cl)c(Cl)c1Cl)O2 [1,2,3,7,8-pentachlorodibenzo-p-dioxin] | 0.46 nM | 7.62 nM |  |  |
| Clc1cc2oc3c(Cl)c(Cl)c(Cl)cc3c2cc1Cl [2,3,4,7,8-pentachlorodibenzofuran] | 1.5 nM | 14.1 nM | two-fold less potent | potency as ligand relative to PCDD, rat AhR (Rat AhR [1]; relative to PCDD): three-fold less potent |
| Clc1cc2oc3cc(Cl)c(Cl)cc3c2cc1Cl [2,3,7,8-tetrachlorodibenzofuran] | 0.36 nM | 6.27 nM |  |  |
| Clc1ccc(-c2cc(Cl)c(Cl)c(Cl)c2)cc1Cl [PCB126, polychlorinated biphenyl 126] | 24.7 nM | 736 nM |  | fold less potent than TCDD, rat AhR (Rat AhR [1]; relative to TCDD): ~50 fold; fold less potent as a ligand than TCDD, human AhR (Human AhR [2]; relative to TCDD): ~40 fold |
| Clc1cc2c(cc1Cl)Oc1cc(Cl)c(Cl)cc1O2 [TCDD, 2,3,7,8-tetrachlorodibenzo-p-dioxin] | 0.55 nM | 15.4 nM | two-fold less potent | Kd (AhR in rat liver cytosol; apparent Kd for TCDD, saturation binding, mean ± Standard deviation, n=6): 1 ± 0.45 nM; maximal binding capacity (Bmax) (AhR in rat liver cytosol; per mg cytosolic protein, [3H]-TCDD): 52 fmol/mg; solubility in protein solution [3]: declines dramatically at concentrations much in excess of 2 nM; Kd (Rat AhR [4]; Kd (typical experiment, Fig. 5A), MOI of 0.1, typical experiment): 1.35 nM; Kd (Rat AhR [4]; Kd for TCDD, recombinant rat AhR, MOI of 0.1, n=6 independent determinations): 1.34 ± 0.32 nM; Bmax, recombinant rat AhR (Rat AhR [4]; MOI of 0.1, [3H]-TCDD): 1.5±0.37 pmol/ mg cytosolic protein; Bmax (typical experiment, Fig. 5A) (Rat AhR [4]; MOI of 0.1, typical experiment): 1.83 pmol/mg; Kd (Human AhR [5]; Kd for TCDD, human AhR, n=6): 2.77 ± 0.94 nM; Bmax, human AhR (Human AhR [5]; [3H]-TCDD): 0.46±0.12 pmol/mg cytosolic protein |
